Tests used:
[1] = tested on: COLO 205 colorectal tumor cells; assay: Tumor cell viability inhibition assay (CellTiter-Glo 2.0, 72 hours); type: cell-based; settings: COLO 205 cell viability
Protocol: The effect of compound treatment on COLO 205 tumor cell viability was assessed using cellular ATP quantification methods (Promega CellTiter-Glo® 2.0, G9241), as follows. Test compounds were prepared using 11-point, 4-fold serial dilutions in DMSO and 100 nL of diluted compounds were transferred to 384-well assay-ready plates. COLO 205 (ATCC, CCL-222) colorectal tumor cells were seeded to assay-ready plates in RPMI-1640 medium supplemented with 10% FBS at 1500 cells in a volume of 33.5 microliters per well. After 72 hours of compound treatment, cellular ATP was assessed by CellTiter-Glo® 2.0 Cell Viability Assay method, according to the manufacturer's instructions. Luminescence was measured using a Clariostar Plus microplate reader (BMG Labtech) or equivalent. After normalization to the average of DMSO control and maximum inhibition control wells, concentration-response data were plotted and standard 4-parameter curve fitting (PEI Signals) was utilized to determine IC50

human eIF4E protein = target: T1, human eIF4E protein (Homo sapiens, UniProt P06730); assay: Biochemical competitive binding assay (TR-FRET competition, EDA-m7GDP-ATTO-647N probe); settings: read-out: hEIF4E TR-FRET IC50
T1 construct: purchased Novus NBP-45314
Protocol: The potencies of compounds binding to human eIF4E protein were measured using a 384-well time-resolved fluorescence resonance energy transfer (TR-FRET) competition assay. The assay was performed in assay buffer containing 50 mM HTEPES pH 7.5, 100 mM KCl, 0.02% Tween-20, and 0.1 mg/mL bovine serum albumin (BSA). The reaction volume was 10 μL and each reaction contained 4 nM recombinant 6×HIS-tagged human EIF4E protein (Novus, NBP-45314), 5 nM EDA-m7GDP-ATTO-647N (Jena Bioscience, NU-827-647N), 2.5 nM Europium conjugated Anti-6×HIS antibody (PerkinElmer, AD0402) and varying concentrations of compound. The final DMSO concentration was […].
Compounds were prepared using 11-point, 4-fold serial dilutions in DMSO and 100 nL of diluted compounds were transferred to 384-well assay-ready plates. Recombinant human EIF4E protein at 2× final concentration (8 nM) was pre-incubated with Eu-anti-6×HIS antibody at 2× final concentration (5 nM) for 5 minutes, then 5 μL of the protein solution was added to assay-ready plates. The protein/compound mix was incubated for 15 minutes, after which 5 μL of a solution containing EDA-m7GDP-ATTO-647N probe at 2× final concentration (10 nM) was added. After a subsequent 15-minute incubation, time-resolved fluorescence of assay plates was measured using a Clariostar Plus microplate reader (BMG Labtech) and TR-FRET values were calculated by taking a ratio of the 665 to 620 wavelength signals. After normalization to the average of DMSO control and maximum inhibition control wells, concentration-response data were plotted and standard 4-parameter curve fitting (PEI Signals) was utilized to determine IC50 values.

T1 sequence (P06730 whole entry): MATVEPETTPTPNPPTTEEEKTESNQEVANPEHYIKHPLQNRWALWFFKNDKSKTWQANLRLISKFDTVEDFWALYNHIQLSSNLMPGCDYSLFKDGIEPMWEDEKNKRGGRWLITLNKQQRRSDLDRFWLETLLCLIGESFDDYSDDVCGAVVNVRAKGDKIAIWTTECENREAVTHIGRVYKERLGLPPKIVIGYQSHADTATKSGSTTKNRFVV

| IC50 ([1]; Homo sapiens, COLO 205, 72 h) [µM] | IC50 (human eIF4E protein) [µM] | IC50 [1] [µM] | SMILES |
| --- | --- | --- | --- |
| < 5 | < 0.1 | – | Cc1cc(-c2cc(Cl)ccc2OCCn2c(C)nc3c(c2=O)C[C@H](N2Cc4cc(F)c(F)cc4C2)CC3)c2scc(C(=O)O)c2n1 (single isomer, unassigned) [Compound 532] |
| 5 to 20 | < 0.1 | – | Cc1cc(-c2cc(Cl)ccc2OCCn2c(C)nc3c(c2=O)CC(N2CCC(OC(F)(F)F)CC2)CC3)c2scc(C(=O)NS(=O)(=O)C(F)F)c2n1 (single isomer, unassigned) [Compound 416] |
| < 5 | < 0.1 | – | Cc1cc(-c2cc(Cl)ccc2OCCn2c(C)nc3c(c2=O)CC(N2CCC(OC(F)(F)F)CC2)CC32CC2)c2scc(C(=O)NS(C)(=O)=O)c2n1 (single isomer, unassigned) [Compound 579, 7-(5-chloro-2-(2-(2′-methyl-4′-oxo-6′-(4-(trifluoromethoxy)piperidin-1-yl)-6′,7′-dihydro-4′H-spiro[cyclopropane-1,8′-quinazolin]-3′(5′H)-yl)ethoxy)phenyl)-5-methyl-N-(methylsulfonyl)thieno[3,2-b]pyridine-3-carboxamide] |
| < 5 | < 0.1 | – | Cc1cc(-c2cc(Cl)ccc2OCCn2c(C)nc3c(c2=O)C[C@H](N2CCC(O)CC2)CC3)c2scc(C(=O)O)c2n1 (single isomer, unassigned) [Compound 434] |
| < 5 | < 0.1 | – | Cc1cc(-c2cc(Cl)ccc2OCCn2c(C)nc3c(c2=O)C[C@@H](N2CCCC[C@H]2c2cccc(F)c2)CC32CC2)c2scc(C(=O)O)c2n1 (single isomer, unassigned) [Compound 628, 7-(5-chloro-2-(2-(6′-(2-(3-fluorophenyl)piperidin-1-yl)-2′-methyl-4′-oxo-6′,7′-dihydro-4′H-spiro[cyclopropane-1,8′-quinazolin]-3′(5′H)-yl)ethoxy)phenyl)-5-methylthieno[3,2-b]pyridine-3-carboxylic acid] |
| – | < 0.1 | < 5 | Cc1cc(-c2cc(Cl)ccc2C#CCn2c(C)nc3c(c2=O)CC(C)(N2CCCC4(C2)CC4(F)F)CC3)c2scc(C(=O)O)c2n1 (single isomer, unassigned) [Compound 608] |
| > 20 | < 0.1 | – | Cc1cc(-c2cc(Cl)ccc2OCCn2c(C)nc3c(c2=O)C[C@@H](N2CCCC[C@@H]2c2cccc(F)c2)CC3)c2scc(C(=O)O)c2n1 (single isomer, unassigned) [Compound 543] |
| 5 to 20 | 0.1 to 0.5 | – | Cc1cc(-c2cc(Cl)ccc2OCCn2c(C)nc3c(c2=O)C[C@H](N2CCCC[C@@H]2C(F)(F)F)CC32CC2)c2scc(C(=O)O)c2n1 (single isomer, unassigned) [Compound 624] |
| 5 to 20 | < 0.1 | – | CO[C@@H]1CCN([C@H]2CCc3nc(C)n(CCOc4ccc(Cl)cc4-c4cc(C)nc5c(C(=O)O)csc45)c(=O)c3C2)CC12CC2 (single isomer, unassigned) [Compound 521] |

More lines, now with the values behind:

| SMILES | IC50 ([1]; Homo sapiens, COLO 205, 72 h) [µM] | IC50 (human eIF4E protein) [µM] | IC50 [1] [µM] |
| --- | --- | --- | --- |
| Cc1cc(-c2cc(Cl)ccc2OCCn2c(C)nc3c(c2=O)CC(C)(N2CCC(OC(F)(F)F)CC2)CC3)c2scc(C(=O)O)c2n1 (single isomer, unassigned) [Compound 515] | < 5 | < 0.1 | – |
| Cc1cc(-c2cc(Cl)ccc2OCCn2c(C)nc3c(c2=O)C[C@H](N2C[C@@H]4CC(F)(F)C[C@@H]4C2)CC3)c2scc(C(=O)NS(C)(=O)=O)c2n1 (single isomer, unassigned) [Compound 368] | < 5 | < 0.1 | – |
| Cc1cc(-c2cc(Cl)ccc2OCCn2c(C)nc3c(c2=O)CC(C)(N(C)CC2CC(F)(F)C2)CC3)c2scc(C(=O)O)c2n1 (single isomer, unassigned) [Compound 599] | 5 to 20 | < 0.1 | – |
| Cc1cc(-c2cc(Cl)ccc2OCCn2c(C)nc3c(c2=O)C[C@@H](N2CC[C@H](OC(F)(F)F)C(C)(C)C2)CC3)c2scc(C(=O)O)c2n1 (single isomer, unassigned) [Compound 392] | < 5 | < 0.1 | – |
| Cc1cc(-c2cc(Cl)ccc2OCCn2c(C)nc3c(c2=O)C[C@@H](N2CCC[C@]4(C2)CC4(F)F)CC32CC2)c2scc(C(=O)O)c2n1 (single isomer, unassigned) [Compound 583] | < 5 | < 0.1 | – |
| Cc1cc(-c2cc(Cl)ccc2OCCn2c(C)nc3c(c2=O)C[C@@](C)(N2CCC[C@@]4(C2)CC4(F)F)CC3)c2scc(C(=O)O)c2n1 (single isomer, unassigned) [Compound 555] | 5 to 20 | 0.1 to 0.5 | – |
| Cc1cc(-c2cc(Cl)ccc2OCCn2c(C)nc3c(c2=O)C[C@@H](N2CC[C@@H](OC(F)(F)F)C2)CC3)c2scc(C(=O)O)c2n1 (single isomer, unassigned) [Compound 389] | < 5 | < 0.1 | – |
| Cc1cc(-c2cc(Cl)ccc2OCCn2c(C)nc3c(c2=O)C[C@@H](N2CCC(n4cccn4)CC2)CC3)c2scc(C(=O)O)c2n1 (single isomer, unassigned) [Compound 474] | < 5 | < 0.1 | – |
| Cc1cc(-c2cc(Cl)ccc2OCCn2c(C)nc3c(c2=O)C[C@H](N2CCO[C@H](CC(F)(F)F)C2)CC3)c2scc(C(=O)O)c2n1 (single isomer, unassigned) [Compound 525] | < 5 | < 0.1 | – |
| Cc1cc(-c2cc(Cl)ccc2OCCn2c(C)nc3c(c2=O)C[C@@H](N2CC[C@H](OC(F)(F)F)C2)CC3)c2scc(C(=O)O)c2n1 (single isomer, unassigned) [Compound 388] | < 5 | < 0.1 | – |
| Cc1cc(-c2cc(Cl)ccc2OCCn2c(C)nc3c(c2=O)C[C@@H](N2CCC[C@@H](OC(F)(F)F)C2)CC3)c2scc(C(=O)O)c2n1 (single isomer, unassigned) [Compound 458] | < 5 | < 0.1 | – |
| Cc1cc(-c2cc(Cl)ccc2OCCn2c(C)nc3c(c2=O)C[C@H](N2CCC[C@]4(C2)CC4(F)F)CC3(C)C)c2scc(C(=O)O)c2n1 (single isomer, unassigned) [Compound 438] | < 5 | < 0.1 | – |
| Cc1cc(-c2cc(Cl)ccc2OCCn2c(C)nc3c(c2=O)C[C@@H](N2CCC(COC(F)(F)F)CC2)CC32CC2)c2scc(C(=O)O)c2n1 (single isomer, unassigned) [Compound 561] | < 5 | < 0.1 | – |
| Cc1cc(-c2cc(Cl)ccc2OCCn2c(C)nc3c(c2=O)C[C@@H](N2CCC[C@H](C(F)F)C2)CC3)c2scc(C(=O)O)c2n1 (single isomer, unassigned) [Compound 101] | < 5 | < 0.1 | – |
| Cc1nc2c(c(=O)n1CC#Cc1ccc(Cl)cc1-c1ccnc3c(C(=O)O)csc13)C[C@@H](N1CCC[C@@]3(C1)CC3(F)F)CC2 (single isomer, unassigned) [Compound 538, 7-(5-chloro-2-(3-(6-(1,1-difluoro-5-azaspiro[2.5]octan-5-yl)-2-methyl-4-oxo-5,6,7,8-tetrahydroquinazolin-3(4H)-yl)prop-1-yn-1-yl)phenyl)thieno[3,2-b]pyridine-3-carboxylic acid] | < 5 | < 0.1 | – |
| Cc1cc(-c2cc(Cl)ccc2OCCn2c(C)nc3c(c2=O)CC(N2CC4CC(C2)C4(F)F)CC3)c2scc(C(=O)O)c2n1 (single isomer, unassigned) [Compound 361] | < 5 | < 0.1 | – |
| Cc1cc(-c2cc(Cl)ccc2OCCn2c(C)nc3c(c2=O)C[C@H](N2CCCC(F)(F)CC2)CC32CC2)c2scc(C(=O)O)c2n1 (single isomer, unassigned) [Compound 545] | < 5 | < 0.1 | – |
| Cc1cc(-c2cc(Cl)ccc2OCCn2c(C)nc3c(c2=O)C[C@@H](N2CCC(Oc4ccc(F)cc4F)CC2)CC32CC2)c2scc(C(=O)O)c2n1 (single isomer, unassigned) [Compound 613] | < 5 | < 0.1 | – |
| Cc1cc(-c2cc(Cl)ccc2OCCn2c(C)nc3c(c2=O)C[C@H](N2CCC[C@@H](c4ccn(C)n4)C2)CC3)c2scc(C(=O)O)c2n1 (single isomer, unassigned) [Compound 447] | 5 to 20 | < 0.1 | – |
| Cc1cc(-c2cc(Cl)ccc2OCCn2c(C)nc3c(c2=O)C[C@H](N2CCC(c4cc(F)cc(F)c4F)CC2)CC3)c2scc(C(=O)O)c2n1 (single isomer, unassigned) [Compound 573] | < 5 | < 0.1 | – |

From US20240246918A1, “COMPOUNDS AND COMPOSITIONS AS EIF4E INHIBITORS AND THE USES THEREOF” (Ribometrix, Inc., priority 2022, published 2024)
